Reference: PubChem BioAssay AID330 (DTP/NCI, 2004)
“And” between values parts separate entries of the source, which are not always exact repeats. Equal entries are not always repeated. Toxic doses and inconclusive results are not listed. How the source made its calls: active means survival T/C of 150% or more; inactive means T/C below 125% in these data.

Test system: P388 leukemia ip, CD2F1 mice, survival T/C
Assay: NCI In Vivo Anticancer Drug Screen. Data for tumor model P388 Leukemia (intraperitoneal) in CD2F1 (CDF1) mice
Settings: endpoint: median survival time, vehicle: saline, higher = longer survival
Method in brief: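 Mice carrying the transplanted tumor received test compound or vehicle. Survival was recorded in each group, and the value is the treated-group measurement divided by that of the vehicle-treated control group.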

Measured: T/C

O=C1OC(C(O)CO)C(O)=C1O (centres undefined)
inactive: dose: 0.05 mg/kg/injection, schedule: Q01DX005 (iv) 108 % of control | dose: 0.05 mg/kg/injection, schedule: Q01DX009 (im) 100 % of control | dose: 0.05 mg/kg/injection, schedule: Q01DX009 (oral) 100 % of control | dose: 0.1 mg/kg/injection, schedule: Q01DX005 (iv) 117 % of control | dose: 0.1 mg/kg/injection, schedule: Q01DX009 (im) 100 % of control | dose: 0.1 mg/kg/injection, schedule: Q01DX009 (oral) 100 % of control and 104 % of control | dose: 0.1 mg/kg/injection, schedule: Q01DX009 (sc) 109 % of control | dose: 0.1 mg/kg/injection, schedule: Q08HX010 (ip) 99 % of control | dose: 0.2 mg/kg/injection, schedule: Q01DX005 (iv) 104 % of control | dose: 0.2 mg/kg/injection, schedule: Q01DX009 (im) 100 % of control | dose: 0.2 mg/kg/injection, schedule: Q01DX009 (oral) 100 % of control | dose: 0.2 mg/kg/injection, schedule: Q01DX009 (sc) 109 % of control | dose: 0.2 mg/kg/injection, schedule: Q08HX010 (ip) 99 % of control | dose: 0.39 mg/kg/injection, schedule: Q01DX005 (iv) 113 % of control | dose: 0.39 mg/kg/injection, schedule: Q01DX009 (im) 104 % of control | dose: 0.39 mg/kg/injection, schedule: Q01DX009 (oral) 100 % of control and 108 % of control | dose: 0.39 mg/kg/injection, schedule: Q01DX009 (sc) 100 % of control | dose: 0.4 mg/kg/injection, schedule: Q08HX010 (ip) 99 % of control | dose: 0.78 mg/kg/injection, schedule: Q01DX005 (iv) 104 % of control | dose: 0.78 mg/kg/injection, schedule: Q01DX009 (im) 104 % of control | dose: 0.78 mg/kg/injection, schedule: Q01DX009 (oral) 100 % of control and 95 % of control | dose: 0.78 mg/kg/injection, schedule: Q01DX009 (sc) 109 % of control | dose: 1.56 mg/kg/injection, schedule: Q01DX005 (iv) 104 % of control | dose: 1.56 mg/kg/injection, schedule: Q01DX009 (im) 100 % of control | dose: 1.56 mg/kg/injection, schedule: Q01DX009 (oral) 100 % of control and 104 % of control | dose: 1.56 mg/kg/injection, schedule: Q01DX009 (sc) 100 % of control | dose: 3.13 mg/kg/injection, schedule: Q01DX005 (iv) 104 % of control | dose: 3.13 mg/kg/injection, schedule: Q01DX009 (im) 104 % of control | dose: 3.13 mg/kg/injection, schedule: Q01DX009 (oral) 100 % of control and 116 % of control | dose: 3.13 mg/kg/injection, schedule: Q01DX009 (sc) 100 % of control | dose: 6.25 mg/kg/injection, schedule: Q01DX005 (iv) 104 % of control | dose: 6.25 mg/kg/injection, schedule: Q01DX009 (im) 104 % of control | dose: 6.25 mg/kg/injection, schedule: Q01DX009 (oral) 100 % of control and 112 % of control | dose: 6.25 mg/kg/injection, schedule: Q01DX009 (sc) 95 % of control | dose: 10.0 mg/kg/injection, schedule: Q01DX005 (ip) 100 % of control | dose: 12.5 mg/kg/injection, schedule: Q01DX005 (iv) 104 % of control | dose: 12.5 mg/kg/injection, schedule: Q01DX009 (im) 109 % of control | dose: 12.5 mg/kg/injection, schedule: Q01DX009 (oral) 100 % of control and 108 % of control | dose: 12.5 mg/kg/injection, schedule: Q01DX009 (sc) 104 % of control | dose: 20.0 mg/kg/injection, schedule: Q01DX005 (ip) 100 % of control | dose: 25.0 mg/kg/injection, schedule: Q01DX005 (iv) 104 % of control | dose: 25.0 mg/kg/injection, schedule: Q01DX009 (im) 100 % of control | dose: 25.0 mg/kg/injection, schedule: Q01DX009 (oral) 100 % of control and 104 % of control | dose: 25.0 mg/kg/injection, schedule: Q01DX009 (sc) 100 % of control | dose: 40.0 mg/kg/injection, schedule: Q01DX005 (ip) 103 % of control | dose: 50.0 mg/kg/injection, schedule: Q01DX005 (iv) 117 % of control | dose: 50.0 mg/kg/injection, schedule: Q01DX009 (im) 109 % of control | dose: 50.0 mg/kg/injection, schedule: Q01DX009 (oral) 100 % of control and 108 % of control | dose: 50.0 mg/kg/injection, schedule: Q01DX009 (sc) 100 % of control | dose: 60.0 mg/kg/injection, schedule: Q01DX005 (ip) 100 % of control | dose: 100.0 mg/kg/injection, schedule: Q01DX005 (iv) 100 % of control | dose: 100.0 mg/kg/injection, schedule: Q01DX009 (im) 104 % of control | dose: 100.0 mg/kg/injection, schedule: Q01DX009 (oral) 100 % of control | dose: 100.0 mg/kg/injection, schedule: Q01DX009 (sc) 100 % of control | dose: 120.0 mg/kg/injection, schedule: Q01DX005 (ip) 102 % of control | dose: 200.0 mg/kg/injection, schedule: Q01DX005 (iv) 104 % of control | dose: 200.0 mg/kg/injection, schedule: Q01DX009 (im) 104 % of control | dose: 200.0 mg/kg/injection, schedule: Q01DX009 (oral) 100 % of control and 104 % of control | dose: 200.0 mg/kg/injection, schedule: Q01DX009 (sc) 90 % of control | dose: 250.0 mg/kg/injection, schedule: Q01DX005 (ip) 86 % of control | dose: 300.0 mg/kg/injection, schedule: Q08HX010 (ip) 99 % of control | dose: 400.0 mg/kg/injection, schedule: Q01DX005 (iv) 100 % of control | dose: 400.0 mg/kg/injection, schedule: Q01DX009 (im) 100 % of control | dose: 400.0 mg/kg/injection, schedule: Q01DX009 (ip) 110 % of control and 77 % of control | dose: 400.0 mg/kg/injection, schedule: Q01DX009 (oral) 108 % of control and 95 % of control | dose: 400.0 mg/kg/injection, schedule: Q01DX009 (sc) 104 % of control | dose: 500.0 mg/kg/injection, schedule: Q01DX005 (ip) 86 % of control | dose: 600.0 mg/kg/injection, schedule: Q08HX010 (ip) 102 % of control and 94 % of control | dose: 800.0 mg/kg/injection, schedule: Q01DX009 (im) 100 % of control | dose: 800.0 mg/kg/injection, schedule: Q01DX009 (ip) 99 % of control and 94 % of control | dose: 800.0 mg/kg/injection, schedule: Q01DX009 (oral) 100 % of control and 108 % of control | dose: 800.0 mg/kg/injection, schedule: Q01DX009 (sc) 95 % of control | dose: 1000.0 mg/kg/injection, schedule: Q01DX005 (ip) 87 % of control | dose: 1200.0 mg/kg/injection, schedule: Q01DX009 (ip) 110 % of control | dose: 1200.0 mg/kg/injection, schedule: Q08HX010 (ip) 101 % of control and 94 % of control | dose: 1600.0 mg/kg/injection, schedule: Q01DX009 (im) 100 % of control | dose: 1600.0 mg/kg/injection, schedule: Q01DX009 (ip) 102 % of control and 61 % of control | dose: 1600.0 mg/kg/injection, schedule: Q01DX009 (oral) 100 % of control and 91 % of control | dose: 1600.0 mg/kg/injection, schedule: Q01DX009 (sc) 104 % of control
